Source: patent US11331289B2, “Antimicrobial composition” (priority 2017, dated 2022)
Values after ≈ are worked out from the molar mass of the structure shown. Where two headings read alike, the source gives them in different places.

What was measured:
Assay type in all cases: cell-based
[1] = test system: Staphylococcus pseudintermedius; assay: Time-killing curves, conclusion over strains
Procedure: (§1) The time-killing curve is used to determine the bactericidal or bacteriostatic activity of the antibimicrobial substances. Time-killing curves of Oxyclozanide against canine isolates of Staphylococcus aureus and Staphylococcus pseudintermedius were obtained using broth macrodilution method. After contact of different fixed amounts of Oxyclozanide with an inoculum, viable bacteria are counted immediately after contact and after 1, 3, 6 and 24 hours. Counting is performed on agar medium without antimicrobial substance.
(§2) Results are analyzed by plotting log10 CFU/ml versus time for each tested concentration. Bactericidal activity as defined by 99.9% killing of the inoculum is determined from time-killing curves by noting the presence of a ≥3 log10 decrease in CFU/ml.
(§3) Bactericidal activity as defined by 99.9% killing of the inoculum is determined from time-killing curves by noting the presence of a ≥3 log10 decrease in CFU/ml.

Staphylococcus aureus = assay: Time-killing curves, conclusion over strains
Procedure: as §1, §2, §3

Malassezia pachydermatis = assay: MIC, microdilution broth method; conditions: for MIC: Malassezia pachydermatis, read-out: MIC
Procedure: Six clinical isolates from dog skin (n=5) and cats (n=1) which had been sent to EnvA (mycology laboratory of BioPôle Alfort) for mycological culture. The isolates, collected in March 2016, were identified as belonging to the species Malassezia pachydermatis. They were maintained by regular transplanting on medium of Sabouraud. Isolates are subcultured 2 to 3 days prior to testing sensitivity.
A stock solution of Oxyclozanide at 1600 μg/mL is prepared in DMSO. The stock solution is then diluted in DMSO to obtain a concentration range of 3.125 μg/ml to 800 μg/ml. A 1/50 dilution of this range and of the stock solution is then carried out in ultrapure water so as to obtain a concentration range of 0.0625 μg/ml to 32 μg/ml and containing 2% of DMSO. 50 μl of these solutions are deposited in wells of a microplate and then 50 μl of inoculum calibrated at 10^6 CFU/ml in Sabouraud/Tween 40 (2%) are added. A range of tested concentrations ranges from 0.0312 μg/mL to 16 μg/mL. The final concentration of DMSO in contact with the inoculum is 1%. The same dilution and seeding protocol was followed with a stock solution of amphotericin B at 1600 μg/ml. A “placebo” (or yeast growth control) column is systematically included in the plates. The plates are incubated at 37 ° C. The reading is done at 24 and 48 h. Several trials were conducted and protocol adjustments were required. In particular, the concentration of the inoculum had to be reduced for antifungal activity to be observed.

[2] = test system: Staphylococcus pseudintermedius no 15401 and no 15410; assay: MIC of Oxyclozanide, broth microdilution method
Procedure: (§4) In this study, 2 Staphylococcus aureus and 2 Staphylococcus pseudintermedius were tested. These strains were chosen after determination of the Minimum Inhibitory Concentration (MIC) of Oxyclozanide using broth microdilution method.

[3] = test system: Staphylococcus aureus no 16302 and no 16315; assay: MIC of Oxyclozanide, broth microdilution method
Procedure: as §4

MIC (Malassezia pachydermatis; Isolate 1, Assay 1, 10^6 CFU/ml): 8 µg/mL (≈ 19.9 µM)
MIC (Malassezia pachydermatis; Isolate 1, Assay 2, 10^6 CFU/ml): 4 µg/mL (≈ 9.96 µM)
MIC (Malassezia pachydermatis; Isolate 2, Assay 1, 10^6 CFU/ml): 8 µg/mL (≈ 19.9 µM)
MIC (Malassezia pachydermatis; Isolate 2, Assay 2, 10^6 CFU/ml): 8 µg/mL (≈ 19.9 µM)
MIC (Malassezia pachydermatis; Isolate 3, Assay 1, 10^6 CFU/ml): 8 µg/mL (≈ 19.9 µM)
MIC (Malassezia pachydermatis; Isolate 3, Assay 2, 10^6 CFU/ml): 16 µg/mL (≈ 39.9 µM)
MIC (Malassezia pachydermatis; Isolate 4, Assay 1, 10^6 CFU/ml): > 16 µg/mL
MIC (Malassezia pachydermatis; Isolate 4, Assay 2, 10^6 CFU/ml): > 16 µg/mL
MIC (Malassezia pachydermatis; Isolate 5, Assay 1, 10^6 CFU/ml): 8 µg/mL (≈ 19.9 µM)
MIC (Malassezia pachydermatis; Isolate 5, Assay 2, 10^6 CFU/ml): 8 µg/mL (≈ 19.9 µM)
MIC (Malassezia pachydermatis; Isolate 6, Assay 1, 10^6 CFU/ml): 8 µg/mL (≈ 19.9 µM)
MIC (Malassezia pachydermatis; Isolate 6, Assay 2, 10^6 CFU/ml): 16 µg/mL (≈ 39.9 µM)
MIC ([2]; Staphylococcus pseudintermedius, no 15401, read-out: MIC): 0.125 µg/mL
MIC ([2]; no 15410): 0.125 µg/mL
MIC ([3]; Staphylococcus aureus, no 16302, read-out: MIC): 0.5 µg/mL
MIC ([3]; no 16315): 0.5 µg/mL
Compound: O=C(Nc1cc(Cl)cc(Cl)c1O)c1c(O)c(Cl)cc(Cl)c1Cl [Oxyclozanide]
Pharmacodynamic profile [1]: concentration-dependant
Contact time at which bactericidal effect (≥3 log10 decrease in CFU/ml) is observed ([1]; concentration of 4 μg/ml): 24 hours
Contact time at which bactericidal effect (≥3 log10 decrease in CFU/ml) is observed ([1]; concentration of 8 μg/ml): 6 to 24 hours
Pharmacodynamic profile (Staphylococcus aureus): concentration-dependant
Contact time at which bactericidal effect (≥3 log10 decrease in CFU/ml) is observed (Staphylococcus aureus; concentration of 4 μg/ml): 24 hours
Contact time at which bactericidal effect (≥3 log10 decrease in CFU/ml) is observed (Staphylococcus aureus; concentration of 8 μg/ml): 6 to 24 hours
Activity with respect to Malassezia pachydermatis (Malassezia pachydermatis; isolate 3): no activity
Activity with respect to Malassezia pachydermatis (Malassezia pachydermatis; six clinical isolates): active
